Measured values: US11793849B2, “Method of Chinese herbal medicine extract used for treating multiple diseases caused by drug resistant bacteria infection” (priority 2016, dated 2023)
Like-named read-outs stand apart in the source and are kept apart here.

Legend:
MDRPA [1] = assay: MIC determination, microdilution broth method;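 further: broth microdilution per NCCLS recommendations, testing Pithecellobium clypearia water or ethanol extracts against multidrug-resistant Pseudomonas aeruginosa, with MIC50 and MIC90 derived statistically from individual MICs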
Protocol: Determination methods of a Minimal Inhibitory Concentration (MIC) and a Minimum Bactericidal Concentration (MBC) of a test product: the MIC and the MBC of the Pithecellobium clypearia Benth water or ethanol extract to the MDRAB are determined by a microdilution broth method. And it is operated by referring to the microdilution broth method recommended by National Committee for Clinical Laboratory Standards (NCCLS).
By determining the MIC and the MBC of the drug and making statistics of the data to obtain MIC50, MIC90, MBC50 and MBC90, the effect of the MDRA resistance of the drug is evaluated.
Test method: the MDRPA (serial No.: P1-P20) strains are tested and are evaluated with reference to the method in the first embodiment.

MDRPA [2] = assay: Checkerboard assay (combined-use MIC, FIC); assay type: cell-based, Pseudomonas aeruginosa; conditions: for FIC, all strains / MIC50 of the antibiotic after combined use / MIC90 of the antibiotic after combined use / reduction of the antibiotic's MIC50 vs single use / reduction of the antibiotic's MIC90 vs single use / share of strains with FIC ≤ 0.5: 20 MDRPAs; for combined-use MIC: EA (P. clypearia water extract) combined with LVX
Protocol: Test methods of the sensibilization effects of the test product to similar antibiotics: it is operated by referring to a checkerboard assay recommended by NCCLS.
The checkerboard assay is performed in a 96-pore sterile culture plate.
Calculation of a Fractional Inhibitory Concentration (FIC): FIC=S20b combined-use MIC/S20b single-use MIC+antibiotic combined-use MIC/antibiotic single-use MIC. By calculating the FIC, the combined antibacterial interaction between the EA and the antibiotic is evaluated, with synergistic effect for FIC≤0.5, additive effect for 0.5<FIC≤1, indifferent effect for 1<FIC≤2 and antagonistic effect for FIC>2. According to a sterile growth pore, the optimum concentration ratio between the EA and the antibiotic is founded out. At last, the effect of the EA to strengthen the efficacy of the antibiotic is evaluated.

ATCC27853 = assay: MIC determination, control strain; assay type: cell-based
Protocol: Determination methods of a Minimal Inhibitory Concentration (MIC) and a Minimum Bactericidal Concentration (MBC) of a test product: the MIC and the MBC of the Pithecellobium clypearia Benth water or ethanol extract to the MDRAB are determined by a microdilution broth method.

[3] = 20 MDRPAs, EA = 60% ethanol extract
[4] = 20 MDRPAs, EA = 95% ethanol extract
[5] = MDRPAs P1-P20, single use, EA=P. clypearia 10% ethanol extract
[6] = MDRPAs P1-P20, single use, EA=P. clypearia water extract
[7] = single use, 20 MDRPAs, section of the 10% ethanol extract
[8] = single use, 20 MDRPAs, section of the 60% ethanol extract
[9] = single use, 20 MDRPAs, section of the 95% ethanol extract
[10] = antibiotic with 10% ethanol extract
[11] = antibiotic with 60% ethanol extract
[12] = antibiotic with 95% ethanol extract
[13] = antibiotic with EA (water extract)

C[C@H]1COc2c(N3CCN(C)CC3)c(F)cc3c(=O)c(C(=O)O)cn1c23 [LVX, Levofloxacin]
32 µg/mL: MIC90 (MDRPA [1]; [3]) | MIC90 (MDRPA [1]; [4]) | MIC90 (MDRPA [1]; [5]) | MIC90 (MDRPA [1]; [6]) | MIC90 (MDRPA [1]; Pseudomonas aeruginosa) | MIC (MDRPA [1]; Pseudomonas aeruginosa, read-out: MIC (single use), strain P1, EA=P. clypearia 10% ethanol extract) | MIC (MDRPA [1]; Pseudomonas aeruginosa, read-out: MIC (single use), strain P1, EA=P. clypearia water extract) | MIC (MDRPA [1]; Pseudomonas aeruginosa, read-out: MIC (single use), strain P7, EA=P. clypearia 10% ethanol extract) | MIC (MDRPA [1]; Pseudomonas aeruginosa, read-out: MIC (single use), strain P7, EA=P. clypearia water extract) | MIC (MDRPA [1]; Pseudomonas aeruginosa, read-out: MIC (single use), strain P14, EA=P. clypearia 10% ethanol extract) | MIC (MDRPA [1]; Pseudomonas aeruginosa, read-out: MIC (single use), strain P14, EA=P. clypearia water extract) | MIC (MDRPA [1]; Pseudomonas aeruginosa, read-out: MIC (single use), strain P16, EA=P. clypearia 10% ethanol extract) | MIC (MDRPA [1]; Pseudomonas aeruginosa, read-out: MIC (single use), strain P16, EA=P. clypearia water extract) | MIC90 (MDRPA [1]; [7]) | MIC90 (MDRPA [1]; [8]) | MIC90 (MDRPA [1]; [9]) | combined-use MIC (MDRPA [2]; strain P10)
≤ 2: FIC, all strains (MDRPA [2]; [10]) | FIC, all strains (MDRPA [2]; [12]) | FIC, all strains (MDRPA [2]; [13])
4 µg/mL: MIC50 (MDRPA [1]; [3]) | MIC50 (MDRPA [1]; [4]) | MIC50 (MDRPA [1]; [5]) | MIC50 (MDRPA [1]; [6]) | MIC50 (MDRPA [1]; Pseudomonas aeruginosa) | MIC (MDRPA [1]; Pseudomonas aeruginosa, read-out: MIC (single use), strain P2, EA=P. clypearia 10% ethanol extract) | MIC (MDRPA [1]; Pseudomonas aeruginosa, read-out: MIC (single use), strain P2, EA=P. clypearia water extract) | MIC (MDRPA [1]; Pseudomonas aeruginosa, read-out: MIC (single use), strain P9, EA=P. clypearia 10% ethanol extract) | MIC (MDRPA [1]; Pseudomonas aeruginosa, read-out: MIC (single use), strain P9, EA=P. clypearia water extract) | MIC (MDRPA [1]; Pseudomonas aeruginosa, read-out: MIC (single use), strain P17, EA=P. clypearia 10% ethanol extract) | MIC (MDRPA [1]; Pseudomonas aeruginosa, read-out: MIC (single use), strain P17, EA=P. clypearia water extract) | MIC (MDRPA [1]; Pseudomonas aeruginosa, read-out: MIC (single use), strain P18, EA=P. clypearia 10% ethanol extract) | MIC (MDRPA [1]; Pseudomonas aeruginosa, read-out: MIC (single use), strain P18, EA=P. clypearia water extract) | MIC (MDRPA [1]; Pseudomonas aeruginosa, read-out: MIC (single use), strain P20, EA=P. clypearia 10% ethanol extract) | MIC (MDRPA [1]; Pseudomonas aeruginosa, read-out: MIC (single use), strain P20, EA=P. clypearia water extract) | MIC50 (MDRPA [1]; [7]) | MIC50 (MDRPA [1]; [8]) | MIC50 (MDRPA [1]; [9]) | MIC90 of the antibiotic after combined use (MDRPA [2]; [10]) | MIC90 of the antibiotic after combined use (MDRPA [2]; [12]) | combined-use MIC (MDRPA [2]; strain P1) | combined-use MIC (MDRPA [2]; strain P4) | combined-use MIC (MDRPA [2]; strain P17) | combined-use MIC (MDRPA [2]; strain P19)
1 µg/mL: MIC (MDRPA [1]; Pseudomonas aeruginosa, read-out: MIC (single use), strain P5, EA=P. clypearia 10% ethanol extract) | MIC (MDRPA [1]; Pseudomonas aeruginosa, read-out: MIC (single use), strain P5, EA=P. clypearia water extract) | MIC (MDRPA [1]; Pseudomonas aeruginosa, read-out: MIC (single use), strain P8, EA=P. clypearia 10% ethanol extract) | MIC (MDRPA [1]; Pseudomonas aeruginosa, read-out: MIC (single use), strain P8, EA=P. clypearia water extract) | MIC (MDRPA [1]; Pseudomonas aeruginosa, read-out: MIC (single use), strain P12, EA=P. clypearia 10% ethanol extract) | MIC (MDRPA [1]; Pseudomonas aeruginosa, read-out: MIC (single use), strain P12, EA=P. clypearia water extract) | MIC50 of the antibiotic after combined use (MDRPA [2]; [10]) | MIC50 of the antibiotic after combined use (MDRPA [2]; [11]) | MIC50 of the antibiotic after combined use (MDRPA [2]; [12]) | MIC50 of the antibiotic after combined use (MDRPA [2]; [13]) | combined-use MIC (MDRPA [2]; strain P11) | combined-use MIC (MDRPA [2]; strain P13) | combined-use MIC (MDRPA [2]; strain P14) | combined-use MIC (MDRPA [2]; strain P15) | combined-use MIC (MDRPA [2]; strain P20) | MIC (ATCC27853; EA=10% ethanol extract, read-out: MIC) | MIC (ATCC27853; EA=60% ethanol extract, read-out: MIC) | MIC (ATCC27853; EA=95% ethanol extract, read-out: MIC) | MIC (ATCC27853; EA=P. clypearia 10% ethanol extract, read-out: MIC (single use)) | MIC (ATCC27853; EA=P. clypearia water extract, read-out: MIC (single use)) | MIC (ATCC27853; EA=water extract, read-out: MIC) | MIC (ATCC27853; single use, EA = 60% ethanol extract, read-out: MIC) | MIC (ATCC27853; single use, EA = 95% ethanol extract, read-out: MIC)
2 µg/mL: MIC (MDRPA [1]; Pseudomonas aeruginosa, read-out: MIC (single use), strain P11, EA=P. clypearia 10% ethanol extract) | MIC (MDRPA [1]; Pseudomonas aeruginosa, read-out: MIC (single use), strain P11, EA=P. clypearia water extract) | MIC (MDRPA [1]; Pseudomonas aeruginosa, read-out: MIC (single use), strain P13, EA=P. clypearia 10% ethanol extract) | MIC (MDRPA [1]; Pseudomonas aeruginosa, read-out: MIC (single use), strain P13, EA=P. clypearia water extract) | MIC (MDRPA [1]; Pseudomonas aeruginosa, read-out: MIC (single use), strain P15, EA=P. clypearia 10% ethanol extract) | MIC (MDRPA [1]; Pseudomonas aeruginosa, read-out: MIC (single use), strain P15, EA=P. clypearia water extract) | combined-use MIC (MDRPA [2]; strain P9) | combined-use MIC (MDRPA [2]; strain P16)
0.03125 µg/mL: combined-use MIC (MDRPA [2]; strain P2) | combined-use MIC (MDRPA [2]; strain P3) | combined-use MIC (MDRPA [2]; strain P5) | combined-use MIC (MDRPA [2]; strain P6) | combined-use MIC (MDRPA [2]; strain P7) | combined-use MIC (MDRPA [2]; strain P8)
0.5 to 128 µg/mL: MIC Range (MDRPA [1]; [3]) | MIC Range (MDRPA [1]; [4]) | MIC Range (MDRPA [1]; [5]) | MIC Range (MDRPA [1]; [6])
87.5%: reduction of the antibiotic's MIC90 vs single use (MDRPA [2]; [10]) | reduction of the antibiotic's MIC90 vs single use (MDRPA [2]; [12])
0.5 µg/mL: MIC (MDRPA [1]; Pseudomonas aeruginosa, read-out: MIC (single use), strain P6, EA=P. clypearia 10% ethanol extract) | MIC (MDRPA [1]; Pseudomonas aeruginosa, read-out: MIC (single use), strain P6, EA=P. clypearia water extract) | combined-use MIC (MDRPA [2]; strain P12)
75%: reduction of the antibiotic's MIC50 vs single use (MDRPA [2]; [10]) | reduction of the antibiotic's MIC50 vs single use (MDRPA [2]; [11]) | reduction of the antibiotic's MIC90 vs single use (MDRPA [2]; [11]) | reduction of the antibiotic's MIC50 vs single use (MDRPA [2]; [12]) | reduction of the antibiotic's MIC50 vs single use (MDRPA [2]; [13]) | reduction of the antibiotic's MIC90 vs single use (MDRPA [2]; [13])
10%: share of strains with FIC ≤ 0.5 (MDRPA [2]; [11]) | share of strains with FIC ≤ 0.5 (MDRPA [2]; [12])
15%: share of strains with FIC ≤ 0.5 (MDRPA [2]; [10]) | share of strains with FIC ≤ 0.5 (MDRPA [2]; [13])
128 µg/mL: MIC (MDRPA [1]; Pseudomonas aeruginosa, read-out: MIC (single use), strain P10, EA=P. clypearia 10% ethanol extract) | MIC (MDRPA [1]; Pseudomonas aeruginosa, read-out: MIC (single use), strain P10, EA=P. clypearia water extract)
8 µg/mL: MIC (MDRPA [1]; Pseudomonas aeruginosa, read-out: MIC (single use), strain P3, EA=P. clypearia 10% ethanol extract) | MIC (MDRPA [1]; Pseudomonas aeruginosa, read-out: MIC (single use), strain P3, EA=P. clypearia water extract) | MIC (MDRPA [1]; Pseudomonas aeruginosa, read-out: MIC (single use), strain P4, EA=P. clypearia 10% ethanol extract) | MIC (MDRPA [1]; Pseudomonas aeruginosa, read-out: MIC (single use), strain P4, EA=P. clypearia water extract) | MIC90 of the antibiotic after combined use (MDRPA [2]; [11]) | MIC90 of the antibiotic after combined use (MDRPA [2]; [13]) | combined-use MIC (MDRPA [2]; strain P18)
16 µg/mL: MIC (MDRPA [1]; Pseudomonas aeruginosa, read-out: MIC (single use), strain P19, EA=P. clypearia 10% ethanol extract) | MIC (MDRPA [1]; Pseudomonas aeruginosa, read-out: MIC (single use), strain P19, EA=P. clypearia water extract)
